Experimental data: US5502035A, “N-terminus modified analogs of LHRH” (Tap Holdings Inc., priority 1994, dated 1996)
Non-standard residues stand in square brackets, D forms with d. Residues, ends and D or L forms follow the SMILES beside them. *: point of attachment. Shikimoyl = O=C(C1=C[C@@H](O)[C@@H](O)[C@H](O)C1)*; dPhe(4-Cl) = N[C@H](Cc1ccc(Cl)cc1)C(=O)O; d2Nal = N[C@H](Cc1ccc2ccccc2c1)C(=O)O; Acetyl(3-pyridyl) = O=C(Cc1cccnc1)*; NMeY = CN[C@@H](Cc1ccc(O)cc1)C(=O)O; dCit = NC(=O)NCCC[C@@H](N)C(=O)O; hArg = N=C(N)NCCCC[C@H](N)C(=O)O; d3Pal = N[C@H](Cc1cccnc1)C(=O)O; Isonicotinoyl = O=C(c1ccncc1)*; Nicotinoyl = O=C(c1cccnc1)*; Picolinoyl = O=C(c1ccccn1)*; X2 = O=C1CC[C@@H](C(=O)*)O1; X8 = O=C1CC[C@H](C(=O)*)O1; 2Furoyl = O=C(c1ccco1)*

Target: T1, LHRH (Rattus norvegicus, UniProt P30969)
T1 construct: endogenous in cells; host or cells: rat pituitary cells (own knowledge of the cited Haviv 1989 method)
T1 sequence (P30969 1-327): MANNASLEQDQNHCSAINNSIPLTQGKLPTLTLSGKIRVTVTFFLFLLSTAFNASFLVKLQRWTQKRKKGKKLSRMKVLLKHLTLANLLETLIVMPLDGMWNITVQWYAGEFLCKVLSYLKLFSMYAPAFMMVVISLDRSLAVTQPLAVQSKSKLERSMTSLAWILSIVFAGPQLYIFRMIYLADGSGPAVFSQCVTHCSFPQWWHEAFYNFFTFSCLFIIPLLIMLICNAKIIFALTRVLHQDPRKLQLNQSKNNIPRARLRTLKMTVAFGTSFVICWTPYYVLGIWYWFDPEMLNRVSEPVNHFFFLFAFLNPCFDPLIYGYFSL
Assay: in vitro test for LHRH antagonist potency (pA2)
Format: cell-based
Conditions: negative logarithm of the antagonist concentration required to shift the response curve produced by the agonist leuprolide to two-fold higher concentration
Outline: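 Rat LHRH receptor in vitro functional test; pA2 = negative log of the antagonist concentration shifting the leuprolide agonist response curve to two-fold higher concentration.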

Row | SMILES | Kb [nM]
1 | CC(C)C[C@H](NC(=O)[C@@H](CCCNC(N)=O)NC(=O)[C@H](Cc1ccc(O)cc1)N(C)C(=O)[C@H](CO)NC(=O)[C@@H](Cc1cccnc1)NC(=O)[C@@H](Cc1ccc(Cl)cc1)NC(=O)[C@@H](Cc1ccc2ccccc2c1)NC(=O)[C@H]1CCC(=O)O1)C(=O)N[C@@H](CCCNC(=N)N)C(=O)N1CCC[C@H]1C(=O)N[C@H](C)C(N)=O [Example 78a, N-(R)-5-Oxo-tetrahydrofur-2-oyl-D2Nal-D4ClPhe-D3Pal-Ser-NMeTyr-DCit-Leu-Arg-Pro-DAlaNH2] (X8-[d2Nal][dPhe(4-Cl)][d3Pal]S[NMeY][dCit]LRP[dA]-NH2) | 0.0105
2 | CC(C)C[C@H](NC(=O)[C@@H](CCCNC(N)=O)NC(=O)[C@H](Cc1ccc(O)cc1)N(C)C(=O)[C@H](CO)NC(=O)[C@@H](Cc1cccnc1)NC(=O)[C@@H](Cc1ccc(Cl)cc1)NC(=O)[C@@H](Cc1ccc2ccccc2c1)NC(=O)[C@@H]1CCC(=O)O1)C(=O)N[C@@H](CCCNC(=N)N)C(=O)N1CCC[C@H]1C(=O)N[C@H](C)C(N)=O [Example 78b, N-(S)-5-Oxo-tetrahydrofur-2-oyl-D2Nal-D4ClPhe-D3Pal-Ser-NMeTyr-DCit-Leu-Arg-Pro-DAlaNH2] (X2-[d2Nal][dPhe(4-Cl)][d3Pal]S[NMeY][dCit]LRP[dA]-NH2) | 0.00832
3 | CC(C)C[C@H](NC(=O)[C@@H](CCCNC(N)=O)NC(=O)[C@H](Cc1ccc(O)cc1)N(C)C(=O)[C@H](CO)NC(=O)[C@@H](Cc1cccnc1)NC(=O)[C@@H](Cc1ccc(Cl)cc1)NC(=O)[C@@H](Cc1ccc2ccccc2c1)NC(=O)C1=C[C@@H](O)[C@@H](O)[C@H](O)C1)C(=O)N[C@@H](CCCNC(=N)N)C(=O)N1CCC[C@H]1C(=O)N[C@H](C)C(N)=O [Example 78c, N-Shikimyl-D2Nal-D4ClPhe-D3Pal-Ser-NMeTyr-DCit-Leu-Arg-Pro-DAlaNH2] (Shikimoyl-[d2Nal][dPhe(4-Cl)][d3Pal]S[NMeY][dCit]LRP[dA]-NH2) | 0.0132
4 | CC(C)C[C@H](NC(=O)[C@@H](CCCNC(N)=O)NC(=O)[C@H](Cc1ccc(O)cc1)N(C)C(=O)[C@H](CO)NC(=O)[C@@H](Cc1cccnc1)NC(=O)[C@@H](Cc1ccc(Cl)cc1)NC(=O)[C@@H](Cc1ccc2ccccc2c1)NC(=O)c1ccco1)C(=O)N[C@@H](CCCNC(=N)N)C(=O)N1CCC[C@H]1C(=O)N[C@H](C)C(N)=O [Example 78d, N-2-Furoyl-D2Nal-D4ClPhe-D3Pal-Ser-NMeTyr-DCit-Leu-Arg-Pro-DAlaNH2] (2Furoyl-[d2Nal][dPhe(4-Cl)][d3Pal]S[NMeY][dCit]LRP[dA]-NH2) | 0.00794
5 | CC(C)C[C@H](NC(=O)[C@@H](CCCNC(N)=O)NC(=O)[C@H](Cc1ccc(O)cc1)N(C)C(=O)[C@H](CO)NC(=O)[C@@H](Cc1cccnc1)NC(=O)[C@@H](Cc1ccc(Cl)cc1)NC(=O)[C@@H](Cc1ccc2ccccc2c1)NC(=O)c1ccncc1)C(=O)N[C@@H](CCCNC(=N)N)C(=O)N1CCC[C@H]1C(=O)N[C@H](C)C(N)=O [Example 78e, N-Isonicotinyl-D2Nal-D4ClPhe-D3Pal-Ser-NMeTyr-DCit-Leu-Arg-Pro-DAlaNH2] (Isonicotinoyl-[d2Nal][dPhe(4-Cl)][d3Pal]S[NMeY][dCit]LRP[dA]-NH2) | 0.0162
6 | CC(C)C[C@H](NC(=O)[C@@H](CCCNC(N)=O)NC(=O)[C@H](Cc1ccc(O)cc1)N(C)C(=O)[C@H](CO)NC(=O)[C@@H](Cc1cccnc1)NC(=O)[C@@H](Cc1ccc(Cl)cc1)NC(=O)[C@@H](Cc1ccc2ccccc2c1)NC(=O)c1ccccn1)C(=O)N[C@@H](CCCNC(=N)N)C(=O)N1CCC[C@H]1C(=O)N[C@H](C)C(N)=O [Example 78f, N-Picolinoyl-D2Nal-D4ClPhe-D3Pal-Ser-NMeTyr-DCit-Leu-Arg-Pro-DAlaNH2] (Picolinoyl-[d2Nal][dPhe(4-Cl)][d3Pal]S[NMeY][dCit]LRP[dA]-NH2) | 0.0316
7 | CC(C)C[C@H](NC(=O)[C@@H](CCCNC(N)=O)NC(=O)[C@H](Cc1ccc(O)cc1)N(C)C(=O)[C@H](CO)NC(=O)[C@@H](Cc1cccnc1)NC(=O)[C@@H](Cc1ccc(Cl)cc1)NC(=O)[C@@H](Cc1ccc2ccccc2c1)NC(=O)c1cccnc1)C(=O)N[C@@H](CCCNC(=N)N)C(=O)N1CCC[C@H]1C(=O)N[C@H](C)C(N)=O [Example 78g, N-Nicotinyl-D2Nal-D4ClPhe-D3Pal-Ser-NMeTyr-DCit-Leu-Arg-Pro-DAlaNH2] (Nicotinoyl-[d2Nal][dPhe(4-Cl)][d3Pal]S[NMeY][dCit]LRP[dA]-NH2) | 0.00708
8 | CC(C)C[C@H](NC(=O)[C@@H](CCCNC(N)=O)NC(=O)[C@H](Cc1ccc(O)cc1)N(C)C(=O)[C@H](CO)NC(=O)[C@@H](Cc1cccnc1)NC(=O)[C@@H](Cc1ccc(Cl)cc1)NC(=O)[C@@H](Cc1ccc2ccccc2c1)NC(=O)Cc1cccnc1)C(=O)N[C@@H](CCCNC(=N)N)C(=O)N1CCC[C@H]1C(=O)N[C@H](C)C(N)=O [Example 78h, N-(3-Pyridylacetyl)-D2Nal-D4ClPhe-D3Pal-Ser-NMeTyr-DCit-Leu-Arg-Pro-DAlaNH2] ({Acetyl(3-pyridyl)}-[d2Nal][dPhe(4-Cl)][d3Pal]S[NMeY][dCit]LRP[dA]-NH2) | 0.0316
9 | CC(C)C[C@H](NC(=O)[C@@H](CCCCNC(=O)C1=C[C@@H](O)[C@@H](O)[C@H](O)C1)NC(=O)[C@H](Cc1ccc(O)cc1)N(C)C(=O)[C@H](CO)NC(=O)[C@@H](Cc1cccnc1)NC(=O)[C@@H](Cc1ccc(Cl)cc1)NC(=O)[C@@H](Cc1ccc2ccccc2c1)NC(=O)C1=C[C@@H](O)[C@@H](O)[C@H](O)C1)C(=O)N[C@@H](CCCCNC(=N)N)C(=O)N1CCC[C@H]1C(=O)N[C@H](C)C(N)=O [Example 79, N-Shikimyl-D2Nal-D4ClPhe-D3Pal-Ser-NMeTyr-DLys(Shik)-Leu-Harg-Pro-DAlaNH2] (Shikimoyl-[d2Nal][dPhe(4-Cl)][d3Pal]S[NMeY][dK](Shikimoyl)L[hArg]P[dA]-NH2) | 0.0195
10 | CC(C)C[C@H](NC(=O)[C@@H](CCCCNC(=O)c1cccnc1)NC(=O)[C@H](Cc1ccc(O)cc1)N(C)C(=O)[C@H](CO)NC(=O)[C@@H](Cc1cccnc1)NC(=O)[C@@H](Cc1ccc(Cl)cc1)NC(=O)[C@@H](Cc1ccc2ccccc2c1)NC(=O)CNC(=O)[C@@H]1CCCO1)C(=O)N[C@@H](CCCCNC(C)C)C(=O)N1CCC[C@H]1C(=O)N[C@@H](C)C(N)=O [Example 80, N-(S)-2-Tetrahydrofuroyl-Gly-D2Nal-D4ClPhe-D3Pal-Ser-NMeTyr-DLys(N-epsilon- Nicotinyl) -Leu-Lys(N-epsilon-Isopropyl)-Pro-AlaH2] | 0.0126
11 | CC(C)C[C@H](NC(=O)[C@@H](CCCCNC(=O)c1cccnc1)NC(=O)[C@H](Cc1ccc(O)cc1)N(C)C(=O)[C@H](CO)NC(=O)[C@@H](Cc1cccnc1)NC(=O)[C@@H](Cc1ccc(Cl)cc1)NC(=O)[C@H](Cc1ccc2ccccc2c1)NC(=O)CNC(=O)[C@@H]1CCCO1)C(=O)N[C@@H](CCCCNC(C)C)C(=O)N1CCC[C@H]1C(=O)N[C@H](C)C(N)=O [Example 81, (S)-2-Tetrahydrofuroyl-Gly-2Nal-D4ClPhe-D3Pal-Ser-NMeTyr-DLys(N-epsilon-Nicotinyl) -Leu-Lys(N-epsilon-Isopropyl)-Pro-DAlaNH2] | 0.891
12 | CC(C)C[C@H](NC(=O)[C@@H](CCCCNC(=O)c1cccnc1)NC(=O)[C@H](Cc1ccc(O)cc1)N(C)C(=O)[C@@H](CO)NC(=O)[C@@H](Cc1cccnc1)NC(=O)[C@@H](Cc1ccc(Cl)cc1)NC(=O)[C@@H](Cc1ccc2ccccc2c1)NC(=O)CNC(=O)[C@@H]1CCCO1)C(=O)N[C@@H](CCCCNC(C)C)C(=O)N1CCC[C@H]1C(=O)N[C@H](C)C(N)=O [Example 82, N (S)-2-Tetrahydrofuroyl-Gly-D2Nal-D4ClPhe-D3Pal-DSer-NMeTyr-DLys(N-epsilon-Nicotinyl) -Leu-Lys(N-epsilon-Isopropyl)-Pro-DAlaNH2] | 1.12
13 | CC(C)C[C@H](NC(=O)[C@@H](CCCCNC(=O)c1cccnc1)NC(=O)[C@H](Cc1ccc(O)cc1)N(C)C(=O)[C@H](CO)NC(=O)[C@H](Cc1cccnc1)NC(=O)[C@@H](Cc1ccc(Cl)cc1)NC(=O)[C@@H](Cc1ccc2ccccc2c1)NC(=O)CNC(=O)[C@@H]1CCCO1)C(=O)N[C@@H](CCCCNC(C)C)C(=O)N1CCC[C@H]1C(=O)N[C@H](C)C(N)=O [Example 83, N (S)-2-Tetrahydrofuroyl-Gly-D2Nal-D4ClPhe-3Pal-Ser-NMeTyr-DLys(N-epsilon-Nicotinyl) -Leu-Lys(N-epsilon-Isopropyl)-Pro-DAlaNH2] | 0.0112
14 | CC(C)C[C@H](NC(=O)[C@H](CCCCNC(=O)c1cccnc1)NC(=O)[C@H](Cc1ccc(O)cc1)N(C)C(=O)[C@H](CO)NC(=O)[C@@H](Cc1cccnc1)NC(=O)[C@@H](Cc1ccc(Cl)cc1)NC(=O)[C@@H](Cc1ccc2ccccc2c1)NC(=O)CNC(=O)[C@@H]1CCCO1)C(=O)N[C@@H](CCCCNC(C)C)C(=O)N1CCC[C@H]1C(=O)N[C@H](C)C(N)=O [Example 85, N (S)-2-Tetrahydrofuroyl-Gly-D2Nal-D4ClPhe-D3Pal-Ser-NMeTyr-Lys(N-epsilon-Nicotinyl) -Leu-Lys(N-epsilon-Isopropyl)-Pro-DAlaNH2] | 0.0112
15 | CC(C)C[C@H](NC(=O)[C@@H](CCCCNC(=O)c1cccnc1)NC(=O)[C@H](Cc1ccc(O)cc1)N(C)C(=O)[C@H](CO)NC(=O)[C@@H](Cc1cccnc1)NC(=O)[C@H](Cc1ccc(Cl)cc1)NC(=O)[C@@H](Cc1ccc2ccccc2c1)NC(=O)CNC(=O)[C@@H]1CCCO1)C(=O)N[C@@H](CCCCNC(C)C)C(=O)N1CCC[C@H]1C(=O)N[C@H](C)C(N)=O [Example 86, N (S)-2-Tetrahydrofuroyl-Gly-D2Nal-4ClPhe-D3Pal-Ser-NMeTyr-DLys(N-epsilon-Nicotinyl) -Leu-Lys(N-epsilon-Isopropyl)-Pro-DAlaNH2] | 0.141
